According to patent US20230295145A1, “PYRROLIDINE DERIVATIVES AND METHODS OF USE” (Genentech, Inc., priority 2020, published 2023):
Read-outs that look alike come from different tables or passages of the source.

Tests used:
ABC-1 = assay: Cell Viability Assay (CellTiter-Glo); type: cell-based; details: 10 μM, 5 days
Procedure: (§1) Cell lines were cultured in RPMI-1640, 5% fetal bovine serum, and 2 mM glutamine in a humidified incubator maintained at 37° C. with 5% CO2. Cells were assessed with a Vi-CELL Cell Viability Analyzer (Beckman Coulter; Brea, CA); viability of at least 90% was required for screening. A Multidropä Combi Reagent Dispenser (Thermo Scientific; Waltham, MA) was used to plate cells into Falcons^â 384-well, black, clear-bottom plates (Catalog No. 353962; Corning; Tewksbury, MA) using seeding densities previous determined to achieve approximately 80% confluence at the final time point of the assay. The compounds were prepared at 1000× in advance using an Echo 555 liquid handler (Labcyte; Sunnyvale, CA) and stored in −80° C. until the day of compound addition. On the following day, cells were treated with compounds at final assay concentration 1 uM and 10 uM using a Bravo Automated Liquid-Handling Platform (Agilent; Santa Clara, CA). After 5 days, 25 mL CellTiter-Glo^â reagent was added using a MultiFloä Microplate Dispenser (BioTek; Winooski, VT). Cell lysis was induced by mixing for 30 minutes on an orbital shaker; plates were then incubated at room temperature for 10 minutes to stabilize the luminescent signal. Luminescence was read by a 2104 EnVision^â Multilabel Plate Reader (PerkinElmer; Waltham, MA).
(§2) The data was processed using Genedata Screener^â, Version 15 (Genedata; Basel, Switzerland) to assess compound effects on viability. Compound treated wells were normalized to the median value of 14 DMSO control wells on the same 384 well plate.

KPL-1 = assay: Cell Viability Assay (CellTiter-Glo); type: cell-based; details: 5 days
Procedure: as §1, §2

VHL [1] = target: T1, VHL (Homo sapiens, UniProt P40337); assay: VHL HEK-293 BRET Assay (VHL NanoBRET Target Engagement Assay); type: cell-based; details: IC50 values measured in the presence of digitonin; HEK 293 RT VHL-NanoLuc stable cells; read-out: IC50 + Digi (μM)*
T1 construct: expressed in transfected cells
T1 sequence (P40337 whole entry): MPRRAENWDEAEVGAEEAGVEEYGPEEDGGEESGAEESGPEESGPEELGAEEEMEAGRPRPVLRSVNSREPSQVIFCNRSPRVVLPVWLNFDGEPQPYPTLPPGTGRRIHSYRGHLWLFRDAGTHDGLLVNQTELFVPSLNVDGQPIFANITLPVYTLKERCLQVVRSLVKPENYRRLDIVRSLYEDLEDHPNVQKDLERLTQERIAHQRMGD

CAL-120 [2] = assay: Cell Viability Assay (CellTiter-Glo); details: 5 days
Procedure: as §1, §2

MCF-7 = assay: Cell Viability Assay (CellTiter-Glo); type: cell-based; details: 10 μM, 5 days
Procedure: (§3) Cell lines were cultured in RPMI-1640, 5% fetal bovine serum, and 2 mM glutamine in a humidified incubator maintained at 37° C. with 5% CO2. Cells were assessed with a Vi-CELL Cell Viability Analyzer (Beckman Coulter; Brea, CA); viability of at least 90% was required for screening. A Multidropä Combi Reagent Dispenser (Thermo Scientific; Waltham, MA) was used to plate cells into Falcons^â 384-well, black, clear-bottom plates (Catalog No. 353962; Corning; Tewksbury, MA) using seeding densities previous determined to achieve approximately 80% confluence at the final time point of the assay. The compounds were prepared at 1000× in advance using an Echo 555 liquid handler (Labcyte; Sunnyvale, CA) and stored in −80° C. until the day of compound addition. On the following day, cells were treated with compounds at final assay concentration 1 uM and 10 uM using a Bravo Automated Liquid-Handling Platform (Agilent; Santa Clara, CA). After 5 days, 25 mL CellTiter-Glo^â reagent was added using a MultiFloä Microplate Dispenser (BioTek; Winooski, VT). Cell lysis was induced by mixing for 30 minutes on an orbital shaker; plates were then incubated at room temperature for 10 minutes to stabilize the luminescent signal. Luminescence was read by a 2104 EnVision^â Multilabel Plate Reader (PerkinElmer; Waltham, MA). […]

NCI-H23 = assay: Cell Viability Assay (CellTiter-Glo); type: cell-based; details: 5 days
Procedure: as §1, §2

NCI-H1650 = assay: Cell Viability Assay (CellTiter-Glo); type: cell-based; details: 10 μM, 5 days
Procedure: as §3

PANC-1 = assay: Cell Viability Assay (CellTiter-Glo); type: cell-based; details: 5 days
Procedure: as §1, §2

NCI-H2030 = assay: Cell Viability Assay (CellTiter-Glo); type: cell-based; details: 5 days
Procedure: as §1, §2

KNS-62 = assay: Cell Viability Assay (CellTiter-Glo); type: cell-based; details: 5 days
Procedure: as §1, §2

KPL-4 = assay: Cell Viability Assay (CellTiter-Glo); type: cell-based; details: 10 μM, 5 days
Procedure: as §3

HCC1438 = assay: Cell Viability Assay (CellTiter-Glo); type: cell-based; details: 10 μM, 5 days
Procedure: as §3

VHL [3] = target: T1, VHL; assay: VHL HEK-293 BRET Assay (VHL NanoBRET Target Engagement Assay); type: cell-based; details: HEK 293 RT VHL-NanoLuc stable cells
Procedure: The VHL NanoBRET™ Target Engagement Assay analyzes the apparent affinity of test compounds for VHL in cells by competitive displacement of a VHL NanoBRET™ tracer reversibly bound to a NanoLuc® VHL fusion protein stably expressed in the cells.
Test compounds were transferred to the assay plate (384 Well White Non-Binding Corning Assay Plates (Corning-3574)) using an Echo 555 Liquid Handler (Labcyte) in 2.5 nL increments and, as appropriate, intermediate stock concentrations of compounds, in order to prepare a titration series. 50 nL of control compound (10 mM; parental unlabeled VHL antagonist; see structure below) and 50 nL of DMSO (negative control) were dispensed into the appropriate control wells. DMSO was backfilled to a final volume of 50 nL as required. 50 nl per well of 1 mM VHL NanoBRET™ Tracer in DMSO (NanoBRET™ Tracer-PEG2-590 (see structure below)) was transferred into each well using an Echo 555 (ultimately yielding a final concentration of 1 uM). HEK 293 RT VHL-NanoLuc® stable cells were cultured in DMEM High Glucose with Pyruvate, 10% fetal bovine serum, 2 mg/mL of Geneticin Selective Antibiotic (50 mg/mL) and 2 mM HEPES (1 M). Cells were seeded in Opti-MEM (Life Technologies-11058-021), 1.7×10^5 cells/mL, 40 μl per well into the assay plate, centrifuged at 500 rpm for 30 seconds and incubated for 2 hours. Max Signal control wells consisted of DMSO only treated wells. Minimum Signal control wells contained of 10 uM parental unlabeled VHL antagonist (control compound—see structure below). 3× Complete Substrate plus Inhibitor Solution was prepared in Opti-MEM (consists of a 1:166 dilution of NanoBRET™ Nano-Glo® Substrate plus a 1:500 dilution of Extracellular NanoLuc® Inhibitor in Opti-MEM), and 20 ul was dispensed into each well of the 384-well plate and centrifuged at 1000 rpm for 1 minute, then incubated for 2 minutes at room temperature. Background Signal control wells were prepared without tracer for background correction steps.
Plates were read using a PerkinElmer Envision Reader (model 2104-0020) equipped with Luminescence option (Mirror: BRET2 Enh (PE Barcode 659), Emission Filter: Omega 610LP (Barcode 504), 2nd Emission Filter: Umbelliferone 460 (Barcode 207), Measurement height: 6.5 mm, Measurement time: 1 s). The raw BRET ratio values were calculated by dividing the acceptor emission value (610 nm) by the donor emission value (460 nm) for each sample. To correct for background, the BRET ratio in the absence of tracer (average of no-tracer control samples) was subtracted from the BRET ratio of each sample. Raw BRET units were converted to milliBRET units (mBU) by multiplying each raw BRET value by 1,000. The normalized NanoBRET™ signal was calculated relative to the Max Signal control wells (DMSO treated control wells) and the Minimum Signal control wells. Percentage inhibition was calculated relative to the Minimum Signal control and Maximum Signal control wells. IC50 values were derived by four parameter curve fitting using the Robust method.

MDA-MB-436 = assay: Cell Viability Assay (CellTiter-Glo); type: cell-based; details: 10 μM, 5 days
Procedure: as §3

CAL-120 [4] = details: 10 µM
Procedure: as §1, §2

HCC366 = assay: Cell Viability Assay (CellTiter-Glo); type: cell-based; details: 5 days
Procedure: as §1, §2

SW 620 = assay: Cell Viability Assay (CellTiter-Glo); type: cell-based; details: 10 μM, 5 days
Procedure: as §3

SUIT-2 = assay: Cell Viability Assay (CellTiter-Glo); type: cell-based; details: 10 μM, 5 days
Procedure: as §3

Compound | Normalized viability % DMSO (ABC-1) [% DMSO] | Normalized viability % DMSO (KPL-1; 10 μM) [% DMSO] | IC50 (VHL [1]) [µM] | Normalized viability % DMSO (CAL-120 [2]; 10 μM) [% DMSO] | Normalized viability % DMSO (MCF-7) [% DMSO] | Normalized viability % DMSO (NCI-H23; 1 μM) [% DMSO] | Normalized viability % DMSO (NCI-H23; 10 μM) [% DMSO] | Normalized viability % DMSO (NCI-H1650) [% DMSO] | Normalized viability % DMSO (PANC-1; 1 μM) [% DMSO] | Normalized viability % DMSO (PANC-1; 10 μM) [% DMSO] | Normalized viability % DMSO (NCI-H2030; 1 μM) [% DMSO] | Normalized viability % DMSO (NCI-H2030; 10 μM) [% DMSO] | Normalized viability % DMSO (KNS-62; 10 μM) [% DMSO] | Normalized viability % DMSO (KPL-4) [% DMSO] | Normalized viability % DMSO (HCC1438) [% DMSO] | IC50 (VHL [3]; read-out: IC50) [µM] | Normalized viability % DMSO (MDA-MB-436) [% DMSO] | further results
CC(C)(NC(=O)[C@@H]1C[C@@H](O)CN1C(=O)[C@@H](n1cc(C2CC2)nn1)C(C)(C)C)C(=O)Nc1ccccc1 [Compound 480, (2S,4R)-N-(2-anilino-1,1-dimethyl-2-oxo-ethyl)-1-[(2S)-2-(4-cyclopropyltriazol-1-yl)-3,3-dimethyl-butanoyl]-4-hydroxy-pyrrolidine-2-carboxamide] | 38.1 | 47.9 | 6.66 | 15.5 | 13.7 | 37.0 | 8.2 | 12.6 | 38.1 | 22.7 | 32.4 | 5.6 | 8.7 | 38.4 | 11.3 | 0.135 | 23.6 | –
(2S,4R)-N-[2-(4-bromoindol-1-yl)ethyl]-1-[(2S)-2-(4-cyclopropyltriazol-1-yl)-3,3-dimethyl-butanoyl]-4-hydroxy-pyrrolidine-2-carboxamide [Compound 469] | – | – | – | – | – | – | – | – | – | – | – | – | – | – | – | 0.21 | – | Normalized viability % DMSO (CAL-120 [4]): 62.6 % DMSO; IC50 (VHL [3]; IC50 values measured in the presence of digitonin, read-out: IC50 + Digi (μM)*): 0.435 µM
CC(C)(C)[C@@H](C(=O)N1C[C@H](O)C[C@H]1C(=O)NC1CC12CCc1cc(Br)ccc12)n1cc(C2CC2)nn1 (stereo partly drawn) [Compound 266, (2S,4R)-N-(5′-bromospiro[cyclopropane-2,1′-indane]-1-yl)-1-[(2S)-2-(4-cyclopropyltriazol-1-yl)-3,3-dimethyl-butanoyl]-4-hydroxy-pyrrolidine-2-carboxamide] | – | – | 9.5 | 46.4 | – | – | 37.6 | – | – | 27.6 | – | 31.8 | – | – | – | 3.69 | – | –
CNC(=O)[C@@H]1C[C@@H](O)CN1C(=O)[C@@H](n1cc(CN2CCC(C(=O)OC)CC2)nn1)C(C)(C)C [Compound 1059, methyl 1-[[1-[(1S)-1-[(2S,4R)-4-hydroxy-2-(methylcarbamoyl)pyrrolidine-1-carbonyl]-2,2-dimethyl-propyl]triazol-4-yl]methyl]piperidine-4-carboxylate] | – | – | 7.47 | 18.1 | – | – | – | – | – | – | – | 12.7 | – | – | – | 18.2 | – | –
Cc1ncsc1-c1ccc(CNC(=O)[C@@H]2C[C@@H](O)CN2C(=O)[C@@H](n2cc(C3CC3)nn2)C(C)(C)C)cc1 [Compound 288, (2S,4R)-1-[(2S)-2-(4-cyclopropyltriazol-1-yl)-3,3-dimethyl-butanoyl]-4-hydroxy-N-[[4-(4-methylthiazol-5-yl)phenyl]methyl]pyrrolidine-2-carboxamide] | 7.1 | 25.4 | 0.0132 | 31.9 | 25.8 | 8.6 | 6.7 | 27.7 | 33.9 | 31.1 | 19.2 | 16.5 | 26.4 | 2.2 | 2.1 | 0.00794 | 15.8 | Normalized viability % DMSO (HCC366; 1 μM): 43.0 % DMSO; Normalized viability % DMSO (HCC366; 10 μM): 22.5 % DMSO; Normalized viability % DMSO (KPL-1; 1 μM): 40.5 % DMSO; Normalized viability % DMSO (SW 620): 28.2 % DMSO; Normalized viability % DMSO (CAL-120 [2]; 1 μM): 31.1 % DMSO; Normalized viability % DMSO (SUIT-2): 30.2 % DMSO; Normalized viability % DMSO (KNS-62; 1 μM): 44.3 % DMSO
